Read-outs that look alike come from different tables or passages of the source.

Test [1] has as its system plasma cholesterol. The test is described as follows: Cholesterol lowering in hypercholesterolemic rats. The format is in vivo. The settings on record: for change in vivo at 0.5 mg/kg/day: Rattus norvegicus, po, read-out: % Cholesterol Lowering; for cholesterol lowering / efficacy in lowering cholesterol: hypercholesterolemic rats; for cholesterol lowering: 0.5 mg/kg/d orally; for efficacy in lowering cholesterol: another experiment.

In test [2] the target is T1, human thyroid hormone receptors TRα1 (Homo sapiens, UniProt P10827).
T1 construct: made in house; host or cells: Sf9 insect cells (baculovirus)
T1 sequence (P10827 1-410 isoform P10827-2): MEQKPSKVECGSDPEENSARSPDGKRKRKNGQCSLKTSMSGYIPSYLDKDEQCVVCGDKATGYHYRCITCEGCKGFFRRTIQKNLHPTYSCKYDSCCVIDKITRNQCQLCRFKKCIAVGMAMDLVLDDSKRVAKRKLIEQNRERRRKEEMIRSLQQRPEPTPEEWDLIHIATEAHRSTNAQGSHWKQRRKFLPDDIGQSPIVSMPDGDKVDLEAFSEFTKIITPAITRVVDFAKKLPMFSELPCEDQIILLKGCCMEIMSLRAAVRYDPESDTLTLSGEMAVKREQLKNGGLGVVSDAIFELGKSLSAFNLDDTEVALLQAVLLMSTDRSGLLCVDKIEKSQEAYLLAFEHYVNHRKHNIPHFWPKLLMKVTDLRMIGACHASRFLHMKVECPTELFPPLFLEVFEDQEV
T1 sequence (P19793 1-462 partner): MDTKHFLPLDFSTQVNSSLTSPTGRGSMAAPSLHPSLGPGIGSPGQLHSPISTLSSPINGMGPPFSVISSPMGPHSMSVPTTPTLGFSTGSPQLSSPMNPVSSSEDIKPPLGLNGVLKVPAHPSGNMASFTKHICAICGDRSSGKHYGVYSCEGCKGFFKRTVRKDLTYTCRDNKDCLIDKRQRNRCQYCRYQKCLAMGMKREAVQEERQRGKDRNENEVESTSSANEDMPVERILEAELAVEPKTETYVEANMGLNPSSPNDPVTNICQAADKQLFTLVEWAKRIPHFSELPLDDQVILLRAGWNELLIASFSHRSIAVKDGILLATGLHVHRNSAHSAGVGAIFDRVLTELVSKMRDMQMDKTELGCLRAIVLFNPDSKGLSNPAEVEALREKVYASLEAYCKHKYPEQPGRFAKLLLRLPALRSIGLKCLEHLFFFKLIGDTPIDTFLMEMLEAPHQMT
The test is described as follows: Receptor binding to TRα1 (gel filtration and scintillation proximity assay, labeled T3). The settings on record: read-out: Ki TRα. As to the method:
(§1) Methods: Baculoviruses expressing TRα1, TRβ1 and RXRα were generated using cDNA and other reagents from Invitrogen (Carlsbad, Calif.). To produce TR/RXR heterodimer proteins, the sf9 insect cells were first grown to a density of 1-5×10^5 cells/mL. […] and RXRα baculovirus stocks were added to the cell culture with a ratio of 1 to 1 (multiplicity of infection=10). The cells were harvested three days after the infection.
(§2) Binding of compounds to either the TRα1 or TRβ1 were also performed by means of scintillation proximity assays (SPA). The SPA assay, a common method used for the quantitation of receptor-ligand equilibria, makes use of special beads coated with a scintillant and a capture molecule, copper, which binds to the histidine-tagged α or β receptor.
On the technique in general: In gel filtration, larger molecules generally elute earlier.

The target in test [3] is T2, human thyroid hormone receptors TRβ1 (Homo sapiens, UniProt P10828).
T2 construct: made in house; host or cells: Sf9 insect cells (baculovirus)
T2 sequence (P10828 1-461): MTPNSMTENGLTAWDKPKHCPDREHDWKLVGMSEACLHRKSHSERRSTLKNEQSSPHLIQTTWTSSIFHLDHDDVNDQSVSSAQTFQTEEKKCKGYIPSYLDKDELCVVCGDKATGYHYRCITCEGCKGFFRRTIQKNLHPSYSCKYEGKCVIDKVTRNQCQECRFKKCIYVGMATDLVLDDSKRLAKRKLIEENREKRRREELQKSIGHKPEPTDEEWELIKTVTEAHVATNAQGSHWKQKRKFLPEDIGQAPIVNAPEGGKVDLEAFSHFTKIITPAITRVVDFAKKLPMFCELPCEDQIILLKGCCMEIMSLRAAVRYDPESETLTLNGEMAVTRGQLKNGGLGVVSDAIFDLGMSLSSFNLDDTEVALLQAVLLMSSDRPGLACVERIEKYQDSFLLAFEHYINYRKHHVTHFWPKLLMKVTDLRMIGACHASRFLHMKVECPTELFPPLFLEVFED
T2 sequence (P19793 1-462 partner): T1 sequence (P19793 1-462 partner)
Description: Receptor binding to TRβ1 (gel filtration and scintillation proximity assay, labeled T3). The settings on record: read-out: Ki TRβ. As to the method:
as §1, §2

[4] abbreviates: delivered p.o. (0.5 mg/kg/d), percentage change from pre-dose cholesterol.

As for `CCOC(=O)[C@H](C)NP(=O)(COc1cc(I)c(Oc2ccc(O)c(C(C)C)c2)c(I)c1)N[C@@H](C)C(=O)OCC` [Compound 15-8], the change in vivo at 0.5 mg/kg/day in test [1] (setting [4]) is -31.1%.

`CCC(C)c1cc(Cc2c(C)cc(OC[P@@]3(=O)OCC[C@@H](c4cccc(Cl)c4)O3)cc2C)ccc1O` (stereo partly drawn) [Compound 13-8, Cis-(S)-2-[(3,5-dimethyl-4-(4′-hydroxy-3′-sec-butylbenzyl)phenoxy)methyl]-4-(3-chlorophenyl)-2-oxo-2λ^5-[1,3,2]-dioxaphosphonane]: in test [1] (setting [4]), the change in vivo at 0.5 mg/kg/day was -26.5%.

On to `CCOC(=O)[C@H](C)NP(=O)(COc1cc(Cl)c(Cc2ccc(O)c(C(C)C)c2)c(Cl)c1)N[C@@H](C)C(=O)OCC` [Compound 15-7], for which the “% Cholesterol Lowering” value in test [1] (setting [4]) is on record as −29.1%.

Turning to `CC(C)c1cc(Oc2c(Br)cc(CP(=O)(OCOC(=O)C(C)(C)C)OCOC(=O)C(C)(C)C)cc2Br)ccc1O` [Compound 12-5, Di-(pivaloyloxymethyl)[3,5-dibromo-4-(4′-hydroxy-3′-iso-propylphenoxy)benzyl]phosphonate], in test [1] (setting [4]), the change in vivo at 0.5 mg/kg/day is -32.5%. In test [1], the cholesterol lowering result is “demonstrated a significant lowering of cholesterol”.

As to `CC(C)c1cc(Oc2c(I)cc(OC[P@@]3(=O)OCC[C@@H](c4cccc(Cl)c4)O3)cc2I)ccc1O` [Compound 13-10], the change in vivo at 0.5 mg/kg/day in test [1] (setting [4]) was -25.8%.

With `CC(C)c1cc(Oc2c(I)cc(OCP(=O)(OCOC(=O)C(C)(C)C)OCOC(=O)C(C)(C)C)cc2I)ccc1O` [Compound 12-7, Di(pivaloyloxymethyl)[3,5-diiodo-4-(4′-hydroxy-3′-iso-propylphenoxy)phenoxy]methylphosphonate], in test [1] (setting [4]), the “% Cholesterol Lowering” value is listed as −39.1%.

Consider `CC(C)c1cc(Oc2c(Cl)c(F)nc(NCP(=O)(OCOC(=O)C(C)(C)C)OCOC(=O)C(C)(C)C)c2Cl)ccc1O` [Compound 12-9], for which the “efficacy in lowering cholesterol” value in test [1] is reported as “not efficacious”.

On to `CCOP(=O)(Cc1cc(Br)c(Oc2ccc(O)c(C(C)C)c2)c(Br)c1)OCC` [Compound 19-1, diethyl[3,5-dibromo-4-(4′-hydroxy-3′-iso-propylphenoxy)]benzylphosphonate], for which, in test [1], the change in vivo at 0.5 mg/kg/day is -6.6% and the cholesterol lowering entry was “failed to demonstrate cholesterol lowering”.

As to `Cc1cc(OC[P@@]2(=O)OCC[C@@H](c3cccc(Br)c3)O2)cc(C)c1Cc1ccc(O)c(C(C)C)c1` [cis-13-2], the “efficacy in lowering cholesterol” value in test [1] is recorded as “not efficacious”.

As for `Cc1cc(SCP(=O)(O)O)cc(C)c1Oc1ccc(O)c(C(C)C)c1` [Compound 54, [3,5-Dimethyl-4-(4′-hydroxy-3′-iso-propylphenoxy)benzenesulfanyl]methylphosphonic acid], the results for the Ki in test [2] and in test [3] were 143 nM and 42 nM, respectively.

Take `CC(=O)Nc1ccc(Cc2c(C)cc(OCP(=O)(O)O)cc2C)cc1C(C)C` [Compound 7-12, [4-(4′-acetylamino-3′-iso-propylbenzyl)-3,5-dimethylphenoxy]methylphosphonic acid]: the Ki – broadly, the dissociation constant of the complex between target and ligand, obtained from inhibition or displacement – in test [2] (SPA data) was over 2000 nM; in test [3] (SPA data) it was 61 nM.

Turning to `O=P(O)(O)Cc1cc(Cl)c(Oc2ccc(O)c(S(=O)(=O)N[C@@H]3C[C@H]4CC[C@@H]3C4)c2)c(Cl)c1` (relative stereo) [Compound 10, 3,5-dichloro-4-[4′-hydroxy-3′-(N-exo-2-norbornylsulfonamido)phenoxy]benzylphosphonic acid], the Ki in test [2] (SPA data) and in test [3] (SPA data) was over 2000 nM in each case.

As for `Cc1cc(CP(=O)(O)O)cc(C)c1Oc1ccc(O)c(C(C)C)c1` [Compound 19-3, [3,5-dimethyl-4-(4′-hydroxy-3′-iso-propylphenoxy)]benzylphosphonic acid], the inhibition constant (Ki) in test [2] came out at 1760 nM; in test [3] (SPA data), 128 nM.

For the compound `Cc1cc(OCCP(=O)(O)O)cc(C)c1Cc1ccc(O)c(C(C)C)c1` [Compound 26, 2-[3,5-dimethyl-4-(3′-iso-propyl-4′-hydroxybenzyl)phenoxy]ethylphosphonic acid], the Ki is 594 nM in test [2] and 87 nM in test [3].

Consider `COc1cc(CCP(=O)(O)O)cc(OC)c1Cc1ccc(O)c(C(C)C)c1` [Compound 24, 2-[3,5-dimethoxy-4-(4′-hydroxy-3′-isopropylbenzyl)phenyl]ethylphosphonic acid], for which the Ki in test [2] (SPA data) and in test [3] (SPA data) was over 2000 nM each time.

In the case of `Cc1cc(OCP(=O)(O)O)cc(C)c1Cc1ccc(O)c(C(=O)O)c1` [Compound 35, [3,5-dimethyl-4-(3′-carboxyl-4′-hydroxy-benzyl)phenoxy]methylphosphonic acid], the Ki in test [2] (SPA data) and in test [3] (SPA data) was over 2000 nM in each case.

As to `Cc1cc(OC[P@@]2(=O)OCC[C@@H](c3cc(Cl)cc(Cl)c3)O2)cc(C)c1Cc1ccc(O)c(C(C)C)c1` [Compound 13-7-cis], the Ki in test [2] (SPA data) was 49600 nM; in test [3] (SPA data), 45100 nM.

Turning to `Cc1cc(OCP(=O)(O)O)cc(C)c1Cc1ccc(O)c(I)c1` [Compound 34, [3,5-dimethyl-4-(4′-hydroxy-3′-iodobenzyl)phenoxy]methylphosphonic acid], the Ki in test [2] (SPA data) is 118 nM; in test [3] (SPA data), 6.5 nM.

As for `CCOC(=O)[C@@H](NP(=O)(COc1cc(C)c(Cc2ccc(O)c(C(C)C)c2)c(C)c1)N[C@H](C(=O)OCC)C(C)C)C(C)C` [Compound 15-3, di-N-(1-ethoxycarbonyl-2-methyl-propylamino)[3,5-dimethyl-4-(3′-iso-propyl-4′-hydroxybenzyl)phenoxy]methylphosphonamide], the Ki in test [2] (SPA data) and in test [3] (SPA data) was over 2000 nM in each case.

`CC(C)c1cc(Oc2c(I)cc(CCP(=O)(O)O)cc2I)ccc1O` [Compound 4, 2-[3,5-diiodo-4-(4′-hydroxy-3′-iso-propylphenoxy)phenyl]ethylphosphonic acid]: the figures for the Ki in test [2] (SPA data) and in test [3] (SPA data) were 14.1 nM and 0.99 nM, respectively.

Turning to `COc1ccc(Cc2c(C)cc(OCP(=O)(O)O)cc2C)cc1C(C)C` [Compound 7-4, [3,5-dimethyl-4-(3′-iso-propyl-4′-methoxybenzyl)phenoxy]methylphosphonic acid], the Ki in test [2] (SPA data) and in test [3] (SPA data) was over 2000 nM throughout.

As for `Cc1cc(OCP(=O)(O)O)cc(C)c1Nc1ccc(O)c(C(C)C)c1` [Compound 20, [3,5-dimethyl-4-N-(4′-hydroxy-3-iso-propylphenylamino)phenoxy]methylphosphonic acid], the Ki in test [2] (SPA data) and in test [3] (SPA data) was over 2000 nM in each case.

Regarding `COc1ccc(Oc2c(C)cc(CCP(=O)(O)O)cc2C)cc1C(C)C` [Compound 30, 2-[3,5-dimethyl-4-(3′-iso-propyl-4′-methoxyphenoxy)phenyl]ethylphosphonic acid], the Ki in test [2] (SPA data) and in test [3] (SPA data) was over 2000 nM in each case.

As to `CC(C)c1cc(Oc2c(I)cc(CP(=O)(O)O)cc2I)ccc1O` [Compound 5, 3,5-diiodo-4-(4′-hydroxy-3′-iso-propylphenoxy)benzylphosphonic acid], the Ki in test [2] is 1.84 nM; in test [3], 0.84 nM.

As for `Cc1cc(C(=O)NCP(=O)(O)O)cc(C)c1Oc1ccc(O)c(C(C)C)c1` [Compound 23, N-[3,5-dimethyl-4-(4′-hydroxy-3′-iso-propylphenoxy)benzamido]methyl phosphonic acid], the Ki in test [2] (SPA data) and in test [3] (SPA data) was over 2000 nM each time.
